In PubChem BioAssay (NCI):
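Method: 48-hour compound exposure of cells in 96-well plates, five concentrations, linear interpolation of endpoints. At the GI50, growth is halved. Definition used: TGI = concentration required for complete inhibition of growth.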

What follows are compounds tested on A498 renal (assay: inhibition of tumour cell growth, NCI panel, 48 h).

Question: Which results are given for `CC(=O)Oc1ccccc1C(=O)N=C1[Se]CCN1C(=O)c1ccccc1OC(C)=O`?
Answer: GI50: 1.02 µM; TGI: 2.4 µM

Question: With `O=S(O)CCCCSSCc1ccccc1CSSCCCCS(=O)O` as the compound, how does the TGI read?
Answer: > 100 µM

Question: Which TGI does the source give for `CCOC(=O)c1[nH]c(COC(C)=O)c(CCCOC(C)=O)c1CCCOC(C)=O` here?
Answer: > 100 µM

Question: With `CSC1(CC(=O)N(C)C)C(=O)Nc2ccccc21` (stereo unspecified) as the compound, how does the TGI read?
Answer: > 100 µM

Question: With `COc1cc(/C=C2\C(=O)Nc3ccc(F)cc32)cc(OC)c1OC` as the compound, how does the GI50 read?
Answer: 54 µM

Question: And the TGI?
Answer: > 100 µM

Question: `C#C[C@]1(O)CC[C@H]2[C@@H]3CC=C4c5sc(Nc6ccccc6)nc5CC[C@]4(C)[C@H]3CC[C@@]21C` was tested. Which GI50 did it give?
Answer: 1.34 µM

Question: And the TGI?
Answer: 3.66 µM

Question: How did the TGI turn out when `O=C(Nc1ccc([N+](=O)[O-])cc1)C1C(=O)C(=O)N(c2ccc([N+](=O)[O-])cc2)C1=O` (stereo unspecified) was run?
Answer: > 100 µM

Question: For `Cc1cn2c(/C=C3/C(=O)Nc4ccccc43)c(-c3ccc(Cl)cc3)nc2s1`, which GI50 is on record?
Answer: 10.6 µM

Question: And the TGI?
Answer: 23.6 µM

Question: For `O=C(/C=C/c1c(O)ccc2ccccc12)c1ccc2ccccc2c1`, which TGI is on record?
Answer: > 100 µM

Question: Which TGI does the source give for `CCOC(=O)C1N(S(=O)(=O)c2ccc(C)cc2)CCC12C(c1ccc(OC)cc1)NC1CCCCC12` (stereo unspecified) here?
Answer: > 100 µM

Question: Which TGI does the source give for `COc1ccccc1NC(=O)C1=C(C)NC(C)=C(C(=O)Nc2ccccc2OC)C1c1ccc([N+](=O)[O-])cc1` here?
Answer: > 100 µM

Question: How did the GI50 turn out when `O=C1c2ccn(CCCCNC(CO)(CO)CO)c2C(=O)c2c1c(O)c1ccccc1c2O` was run?
Answer: 16.5 µM

Question: What about the TGI of the same compound?
Answer: 46.8 µM

Question: How did the TGI turn out when `COC(=O)/C=C/C1C(C(=O)OC)C2(C(=O)OC)CCC1(C(=O)OC)N2` (stereo unspecified) was run?
Answer: > 100 µM

Question: Which TGI does the source give for `CC(C)(C)N1CC2(CCCCC2)C1=O` here?
Answer: > 100 µM

Question: What does the source list for `CC(=O)c1c(CBr)n([O-])c2ccccc2[n+]1=O`?
Answer: GI50: 23.6 µM; TGI: 54.8 µM

Question: For `C#CC(=O)Nc1cccc(Nc2nc3c(c(NCc4ccccc4)n2)CCCC3)c1`, which GI50 is on record?
Answer: 0.115 µM

Question: And the TGI?
Answer: 0.918 µM

Question: How did the TGI turn out when `COc1ccc(C(=O)C(CO)Oc2ccccc2OC)cc1OC` (stereo unspecified) was run?
Answer: > 100 µM

Question: For `N#CC(/C(=N/NC(=O)C(=O)NN)C(=O)NC12CC3CC(CC(C3)C1)C2)c1ccccc1` (stereo unspecified), which TGI is on record?
Answer: > 100 µM

Question: With `CC(C)(C)C(=O)/C=C/c1ccc(Oc2ccccc2)cc1` as the compound, how does the TGI read?
Answer: 32.7 µM

Question: With `CN=NN(C)C(=O)NC` as the compound, how does the TGI read?
Answer: > 100 µM

Question: With `Nc1c(C(=O)N/N=C/c2ccc(-c3ccc(Cl)cc3)o2)cnn1-c1ccnc2c(C(F)(F)F)cccc12` as the compound, how does the GI50 read?
Answer: > 100 µM

Question: And the TGI?
Answer: > 100 µM

Question: Which results are given for `c1ccc2c3ccn4cc5c(cc4c-3nc2c1)CCCC5`?
Answer: GI50: 11.6 µM; TGI: 24.1 µM

Question: What does the source list for `Cc1c(C2Nc3ccccc3C2C)[nH]c2ccccc12` (stereo unspecified)?
Answer: GI50: 10.7 µM; TGI: 23.1 µM

Question: How did the GI50 turn out when `CCN(CC)CC(C)(C)C(=O)/C=C/c1ccc(Cl)c(Cl)c1` was run?
Answer: 1.63 µM

Question: What about the TGI of the same compound?
Answer: 3.55 µM

Question: Which GI50 does the source give for `CCN(CC)CCNCC(=O)Oc1ccc(/C=C/C(=O)CC(=O)/C=C/c2ccc(OC(=O)CNCCN(CC)CC)c(OC)c2)cc1OC` here?
Answer: 3.34 µM

Question: What about the TGI of the same compound?
Answer: 11.6 µM

Question: How did the GI50 turn out when `COc1cc(NC(C)CCCN)c2nccc(C)c2c1OC` (stereo unspecified) was run?
Answer: 14.4 µM

Question: And the TGI?
Answer: 30 µM

Question: Which TGI does the source give for `O=C(CN1CCCCC1)N1CCc2c([nH]c3ccccc23)C1c1cccnc1` (stereo unspecified) here?
Answer: > 100 µM

Question: For `COC(=O)C12C3C4C5(C(=O)OC)C(C1C35C(=O)N(C(C)C)C(C)C)C42C(=O)N(C(C)C)C(C)C` (stereo unspecified), which TGI is on record?
Answer: > 50 µM

Question: For `CC(=O)O[C@@H]1C[C@]2(C(C)C)O[C@@]1(C)[C@@H]1CCC(C)=C1[C@@H]2OC(=O)/C=C/c1ccccc1`, which GI50 is on record?
Answer: 2.19 µM

Question: And the TGI?
Answer: 6.59 µM

Question: `Cc1cc(C)n(CCNCCn2nc(C)cc2C)n1` was tested. Which TGI did it give?
Answer: > 100 µM

Question: `O=C1CSC(Cc2nc3ccccc3[nH]2)=N1` was tested. Which TGI did it give?
Answer: 10.4 µM

Question: How did the GI50 turn out when `O=C(Nc1cccc(Cl)c1Cl)c1cccc(NC2=C(Cl)C(=O)N(Cc3ccccc3)C2=O)c1` was run?
Answer: 36.1 µM

Question: What about the TGI of the same compound?
Answer: > 100 µM

Question: With `O=C(/C=C/c1ccccc1)/C=C/c1ccccc1` as the compound, how does the TGI read?
Answer: > 100 µM

Question: How did the TGI turn out when `N#C/C(=C\c1ccc(O)c(O)c1)C(N)=O` was run?
Answer: > 100 µM

Question: For `COc1cc2c(cc1OC)C13CCN4CC5=CCOC6CC(=O)N2C1C6C5CC43O` (stereo unspecified), which TGI is on record?
Answer: > 100 µM

Question: For `N#CC(C#N)=c1[nH]c2cccc3c2-c2c(cccc2c3=C(C#N)C#N)[nH]1`, which TGI is on record?
Answer: > 100 µM

These compounds were tested on HOP-62 NSCLC (assay: inhibition of tumour cell growth, NCI panel, 48 h).

Question: With `CC(=O)Oc1ccccc1C(=O)N=C1[Se]CCN1C(=O)c1ccccc1OC(C)=O` as the compound, how does the GI50 read?
Answer: 0.546 µM

Question: What about the TGI of the same compound?
Answer: 1.88 µM

Question: How did the TGI turn out when `O=S(O)CCCCSSCc1ccccc1CSSCCCCS(=O)O` was run?
Answer: > 100 µM

Question: Which TGI does the source give for `CCOC(=O)c1[nH]c(COC(C)=O)c(CCCOC(C)=O)c1CCCOC(C)=O` here?
Answer: > 100 µM

Question: For `CSC1(CC(=O)N(C)C)C(=O)Nc2ccccc21` (stereo unspecified), which TGI is on record?
Answer: > 100 µM

Question: Which results are given for `COc1cc(/C=C2\C(=O)Nc3ccc(F)cc32)cc(OC)c1OC`?
Answer: GI50: 35.8 µM; TGI: > 100 µM

Question: Which results are given for `C#C[C@]1(O)CC[C@H]2[C@@H]3CC=C4c5sc(Nc6ccccc6)nc5CC[C@]4(C)[C@H]3CC[C@@]21C`?
Answer: GI50: 2.19 µM; TGI: 10.7 µM

Question: `O=C(Nc1ccc([N+](=O)[O-])cc1)C1C(=O)C(=O)N(c2ccc([N+](=O)[O-])cc2)C1=O` (stereo unspecified) was tested. Which TGI did it give?
Answer: > 100 µM

Question: Which results are given for `Cc1cn2c(/C=C3/C(=O)Nc4ccccc43)c(-c3ccc(Cl)cc3)nc2s1`?
Answer: GI50: 8.46 µM; TGI: 15.3 µM

Question: How did the TGI turn out when `O=C(CCC/C(CC(=O)c1ccc(Br)cc1)=N\O)Nc1ccccc1` was run?
Answer: > 100 µM

Question: Which TGI does the source give for `O=C(/C=C/c1c(O)ccc2ccccc12)c1ccc2ccccc2c1` here?
Answer: > 100 µM

Question: `CCOC(=O)C1N(S(=O)(=O)c2ccc(C)cc2)CCC12C(c1ccc(OC)cc1)NC1CCCCC12` (stereo unspecified) was tested. Which TGI did it give?
Answer: > 100 µM

Question: With `COc1ccccc1NC(=O)C1=C(C)NC(C)=C(C(=O)Nc2ccccc2OC)C1c1ccc([N+](=O)[O-])cc1` as the compound, how does the TGI read?
Answer: > 100 µM

Question: With `O=C(CSc1nnc(-c2ccccc2NC(=O)C(F)(F)F)c(=O)[nH]1)NC(=O)Nc1ccccc1` as the compound, how does the TGI read?
Answer: > 100 µM

Question: Which results are given for `O=C1c2ccn(CCCCNC(CO)(CO)CO)c2C(=O)c2c1c(O)c1ccccc1c2O`?
Answer: GI50: 3.82 µM; TGI: 8.77 µM

Question: With `COC(=O)/C=C/C1C(C(=O)OC)C2(C(=O)OC)CCC1(C(=O)OC)N2` (stereo unspecified) as the compound, how does the TGI read?
Answer: > 100 µM

Question: `CC(C)(C)N1CC2(CCCCC2)C1=O` was tested. Which TGI did it give?
Answer: > 100 µM

Question: What does the source list for `CC(=O)c1c(CBr)n([O-])c2ccccc2[n+]1=O`?
Answer: GI50: 15.6 µM; TGI: 29.7 µM

Question: Which GI50 does the source give for `C#CC(=O)Nc1cccc(Nc2nc3c(c(NCc4ccccc4)n2)CCCC3)c1` here?
Answer: 0.0612 µM

Question: What about the TGI of the same compound?
Answer: 0.435 µM

Question: `COc1ccc(C(=O)C(CO)Oc2ccccc2OC)cc1OC` (stereo unspecified) was tested. Which TGI did it give?
Answer: > 100 µM

Question: `N#CC(/C(=N/NC(=O)C(=O)NN)C(=O)NC12CC3CC(CC(C3)C1)C2)c1ccccc1` (stereo unspecified) was tested. Which TGI did it give?
Answer: > 100 µM

Question: Which TGI does the source give for `CC(C)(C)C(=O)/C=C/c1ccc(Oc2ccccc2)cc1` here?
Answer: 86.4 µM

Question: With `CN=NN(C)C(=O)NC` as the compound, how does the TGI read?
Answer: > 100 µM

Question: How did the GI50 turn out when `Nc1c(C(=O)N/N=C/c2ccc(-c3ccc(Cl)cc3)o2)cnn1-c1ccnc2c(C(F)(F)F)cccc12` was run?
Answer: > 100 µM

Question: And the TGI?
Answer: > 100 µM

Question: Which GI50 does the source give for `c1ccc2c3ccn4cc5c(cc4c-3nc2c1)CCCC5` here?
Answer: 3.5 µM

Question: And the TGI?
Answer: 13.1 µM

Question: For `CCCCCCCCCc1cc(=O)c2c(O)cccc2o1`, which TGI is on record?
Answer: > 100 µM

Question: `N#CC1Nc2ccccc2[C@@H](O)C1O` (stereo partly specified) was tested. Which TGI did it give?
Answer: > 100 µM

Question: Which results are given for `Cc1c(C2Nc3ccccc3C2C)[nH]c2ccccc12` (stereo unspecified)?
Answer: GI50: 12.1 µM; TGI: 26.1 µM

Question: `CCN(CC)CC(C)(C)C(=O)/C=C/c1ccc(Cl)c(Cl)c1` was tested. Which GI50 did it give?
Answer: 1.75 µM

Question: And the TGI?
Answer: 3.29 µM

Question: Which results are given for `CCN(CC)CCNCC(=O)Oc1ccc(/C=C/C(=O)CC(=O)/C=C/c2ccc(OC(=O)CNCCN(CC)CC)c(OC)c2)cc1OC`?
Answer: GI50: 3.34 µM; TGI: 12.8 µM

Question: How did the TGI turn out when `CCOC(=O)CCc1c(C)c2c(OC(C)=O)cc(OC(C)=O)cc2oc1=O` was run?
Answer: > 100 µM

Question: What does the source list for `COc1cc(NC(C)CCCN)c2nccc(C)c2c1OC` (stereo unspecified)?
Answer: GI50: 11.1 µM; TGI: 28 µM

Question: With `O=C(CN1CCCCC1)N1CCc2c([nH]c3ccccc23)C1c1cccnc1` (stereo unspecified) as the compound, how does the TGI read?
Answer: > 100 µM

Question: For `COC(=O)C12C3C4C5(C(=O)OC)C(C1C35C(=O)N(C(C)C)C(C)C)C42C(=O)N(C(C)C)C(C)C` (stereo unspecified), which TGI is on record?
Answer: > 50 µM

Question: `CC(=O)O[C@@H]1C[C@]2(C(C)C)O[C@@]1(C)[C@@H]1CCC(C)=C1[C@@H]2OC(=O)/C=C/c1ccccc1` was tested. Which GI50 did it give?
Answer: 88.8 µM

Question: What about the TGI of the same compound?
Answer: > 100 µM

Question: `Cc1cc(C)n(CCNCCn2nc(C)cc2C)n1` was tested. Which TGI did it give?
Answer: > 100 µM

Question: With `O=C1CSC(Cc2nc3ccccc3[nH]2)=N1` as the compound, how does the TGI read?
Answer: 44.1 µM

Question: `O=C(Nc1cccc(Cl)c1Cl)c1cccc(NC2=C(Cl)C(=O)N(Cc3ccccc3)C2=O)c1` was tested. Which GI50 did it give?
Answer: > 100 µM

Question: What about the TGI of the same compound?
Answer: > 100 µM

Question: How did the TGI turn out when `O=C(/C=C/c1ccccc1)/C=C/c1ccccc1` was run?
Answer: > 100 µM

Question: For `N#C/C(=C\c1ccc(O)c(O)c1)C(N)=O`, which TGI is on record?
Answer: > 100 µM

Question: `N#CC(C#N)=c1[nH]c2cccc3c2-c2c(cccc2c3=C(C#N)C#N)[nH]1` was tested. Which TGI did it give?
Answer: > 100 µM
